The results in this text go back to ChEMBL document CHEMBL5236635, “Structure-Based Drug Design and Synthesis of Novel N-Aryl-2,4-bithiazole-2-amine CYP1B1-Selective Inhibitors in Overcoming Taxol Resistance in A549 Cells” (J Med Chem, 2022).

pIC50: −log10 of the molar value. Calls of active or inactive are those of the source. The rule behind the calls is not given here.

Test [1] has as its system A549. The test can be described thus: Inhibition of cell migration in DMBA-induced human A549 cells at 5 uM incubated for 48 hrs by inverted microscopic analysis. Type of test: functional, cell-based.
Test [2] concerns A549. The test can be described thus: Inhibition of DMBA-induced CYP1B1 overexpression in human A549 cells assessed as increase in SRC level incubated for 24 hrs by densitometry analysis. Type of test: functional, cell-based. To be noted: dose 5.0 µM.
In test [3] the test system is A549/TR. The test can be described thus: Reversal of taxol resistance human A549/Taxol cells assessed as increase in sensitivity incubated for 72 hrs by MTT assay. Type of test: functional, cell-based. In general terms: Formazan colour is commonly taken as a measure of viable cells.
The test system of test [4] is NCI-H460. Put plainly: Upregulation of DMBA-induced CYP1B1 expression level in human NCI-H460 cells at 5 uM incubated for 24 hrs. It counts as functional, cell-based.
The test system of test [5] is A549/TR. Put plainly: Reversal of taxol resistance in human A549/Taxol cells assessed as suppression of P-gp expression level at 5 uM incubated for 20 mins by multimode plate reader analysis. Type of test: functional, cell-based.
The test system of test [6] is NCI-H460. The test can be described thus: Inhibition of DMBA-induced CYP1B1 overexpression in human NCI-H460 cells assessed as increase in Vimentin level incubated for 24 hrs by densitometry analysis. It counts as functional, cell-based. To be noted: dose 5.0 µM.
A further test has as its target T1, Cytochrome P450 1A2 (Homo sapiens, UniProt P05177).
T1 sequence (P05177 whole entry): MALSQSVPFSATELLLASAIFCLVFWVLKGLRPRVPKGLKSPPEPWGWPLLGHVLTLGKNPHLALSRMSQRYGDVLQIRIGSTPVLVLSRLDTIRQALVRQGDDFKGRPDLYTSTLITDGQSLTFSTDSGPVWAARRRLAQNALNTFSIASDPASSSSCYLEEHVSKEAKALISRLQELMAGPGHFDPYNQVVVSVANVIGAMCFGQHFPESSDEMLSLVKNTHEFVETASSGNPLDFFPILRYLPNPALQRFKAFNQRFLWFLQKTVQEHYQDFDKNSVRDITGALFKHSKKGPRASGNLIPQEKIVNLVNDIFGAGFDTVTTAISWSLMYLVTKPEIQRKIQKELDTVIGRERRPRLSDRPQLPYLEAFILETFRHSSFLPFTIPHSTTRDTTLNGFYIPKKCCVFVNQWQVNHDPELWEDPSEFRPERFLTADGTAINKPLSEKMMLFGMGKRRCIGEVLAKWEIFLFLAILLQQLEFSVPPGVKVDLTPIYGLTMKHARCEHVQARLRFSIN
The test can be described thus: Inhibition of recombinant human CYP1A2 using 7-ethyl-0-resorufin as substrate incubated for 30 mins in presence of NADPH by EROD assay.

In test [7] the test system is A549. The test can be described thus: Inhibition of DMBA-induced CYP1B1 overexpression in human A549 cells assessed as effect on E-cadherin level at 5 uM incubated for 24 hrs by densitometry analysis. Type of test: functional, cell-based.
For test [8], the system named is NCI-H460. Put plainly: Inhibition of cell migration in DMBA-induced human NCI-H460 cells at 5 uM incubated for 48 hrs by inverted microscopic analysis. It counts as functional, cell-based.
In test [9] the test system is NCI-H460. The test can be described thus: Inhibition of DMBA-induced CYP1B1 overexpression in human NCI-H460 cells assessed as increase in FAK level incubated for 24 hrs by densitometry analysis. The conditions noted are these: dose 5.0 µM. Type of test: functional, cell-based.
For test [10], the system named is NCI-H460. Put plainly: Inhibition of DMBA-induced CYP1B1 overexpression in human NCI-H460 cells assessed as increase in SRC level incubated for 24 hrs by densitometry analysis. Type of test: functional, cell-based. The conditions noted are these: dose 5.0 µM.
The target of test [11] is Focal adhesion kinase 1 (Homo sapiens) (UniProt Q05397). Put plainly: Inhibition of FAK pathway in human A549/Taxol cells assessed as decrease in phosphorylated FAK level at 5 uM incubated for 24 hrs. Type of test: cell-based.
Focal adhesion kinase 1 (Homo sapiens), sequence (Q05397 2-1052 limits assumed): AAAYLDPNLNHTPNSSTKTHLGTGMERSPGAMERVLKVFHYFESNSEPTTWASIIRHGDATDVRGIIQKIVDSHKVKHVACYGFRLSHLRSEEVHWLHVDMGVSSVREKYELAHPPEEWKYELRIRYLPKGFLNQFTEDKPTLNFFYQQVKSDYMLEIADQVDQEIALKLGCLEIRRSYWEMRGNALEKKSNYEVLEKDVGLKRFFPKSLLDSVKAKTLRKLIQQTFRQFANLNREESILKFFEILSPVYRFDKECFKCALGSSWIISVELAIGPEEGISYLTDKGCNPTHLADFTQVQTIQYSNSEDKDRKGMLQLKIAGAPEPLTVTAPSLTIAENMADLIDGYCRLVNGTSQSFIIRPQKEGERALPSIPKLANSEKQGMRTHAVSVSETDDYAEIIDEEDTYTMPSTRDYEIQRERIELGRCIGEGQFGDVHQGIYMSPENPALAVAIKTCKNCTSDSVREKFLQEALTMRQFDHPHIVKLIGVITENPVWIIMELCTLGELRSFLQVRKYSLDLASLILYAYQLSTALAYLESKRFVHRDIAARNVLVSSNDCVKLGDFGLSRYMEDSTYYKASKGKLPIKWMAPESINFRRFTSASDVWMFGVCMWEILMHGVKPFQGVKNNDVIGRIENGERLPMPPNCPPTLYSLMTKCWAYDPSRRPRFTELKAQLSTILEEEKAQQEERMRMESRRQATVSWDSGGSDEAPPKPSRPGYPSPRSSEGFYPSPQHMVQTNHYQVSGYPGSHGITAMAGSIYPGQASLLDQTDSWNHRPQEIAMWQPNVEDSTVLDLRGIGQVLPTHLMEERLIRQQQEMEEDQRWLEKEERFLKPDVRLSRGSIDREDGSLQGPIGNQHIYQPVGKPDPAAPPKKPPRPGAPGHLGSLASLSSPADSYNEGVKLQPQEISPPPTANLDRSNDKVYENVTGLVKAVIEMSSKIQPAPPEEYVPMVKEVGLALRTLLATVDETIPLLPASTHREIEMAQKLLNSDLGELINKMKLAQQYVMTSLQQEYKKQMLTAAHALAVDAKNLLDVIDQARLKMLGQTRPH
The subject of test [12] is A549. Put plainly: Inhibition of DMBA-induced CYP1B1 overexpression in human A549 cells assessed as increase in N-cadherin level incubated for 24 hrs by densitometry analysis. It counts as functional, cell-based. The conditions noted are these: dose 5.0 µM.
For test [13], the system named is NCI-H460. The test can be described thus: Inhibition of DMBA-induced AKT overexpression in human taxol resistance NCI-H460 cells at 5 uM incubated for 24 hrs. It counts as functional, cell-based.
Test [14] concerns NCI-H460. The test can be described thus: Inhibition of DMBA-induced CYP1B1 overexpression in human NCI-H460 cells assessed as increase in Paxillin level incubated for 24 hrs by densitometry analysis. It counts as functional, cell-based. The conditions noted are these: dose 5.0 µM.
Test [15] has as its system NCI-H460. The test can be described thus: Inhibition of DMBA-induced CYP1B1 overexpression in human NCI-H460 cells assessed as increase in N-cadherin level incubated for 24 hrs by densitometry analysis. Type of test: functional, cell-based. The conditions noted are these: dose 5.0 µM.
In test [16] the target is Mitogen-activated protein kinase; ERK1/ERK2 (Homo sapiens) (UniProt P27361+P28482). Put plainly: Inhibition of ERK1/2 pathway in human A549/Taxol cells assessed as decrease in phosphorylated ERK1/2 level at 5 uM incubated for 24 hrs. Type of test: cell-based.
Mitogen-activated protein kinase; ERK1/ERK2 (Homo sapiens), sequence (P27361 whole entry, looked up): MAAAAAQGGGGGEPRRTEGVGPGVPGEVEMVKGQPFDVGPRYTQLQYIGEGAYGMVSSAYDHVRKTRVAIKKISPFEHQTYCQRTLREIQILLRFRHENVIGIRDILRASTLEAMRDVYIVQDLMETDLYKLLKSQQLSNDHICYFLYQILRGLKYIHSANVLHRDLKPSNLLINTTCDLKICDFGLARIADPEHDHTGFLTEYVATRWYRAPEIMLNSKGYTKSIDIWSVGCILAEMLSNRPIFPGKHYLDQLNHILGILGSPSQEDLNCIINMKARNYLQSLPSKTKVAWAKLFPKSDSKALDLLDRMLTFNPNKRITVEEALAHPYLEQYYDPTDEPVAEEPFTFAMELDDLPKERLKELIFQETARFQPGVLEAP
Mitogen-activated protein kinase; ERK1/ERK2 (Homo sapiens), sequence (P28482 whole entry, looked up): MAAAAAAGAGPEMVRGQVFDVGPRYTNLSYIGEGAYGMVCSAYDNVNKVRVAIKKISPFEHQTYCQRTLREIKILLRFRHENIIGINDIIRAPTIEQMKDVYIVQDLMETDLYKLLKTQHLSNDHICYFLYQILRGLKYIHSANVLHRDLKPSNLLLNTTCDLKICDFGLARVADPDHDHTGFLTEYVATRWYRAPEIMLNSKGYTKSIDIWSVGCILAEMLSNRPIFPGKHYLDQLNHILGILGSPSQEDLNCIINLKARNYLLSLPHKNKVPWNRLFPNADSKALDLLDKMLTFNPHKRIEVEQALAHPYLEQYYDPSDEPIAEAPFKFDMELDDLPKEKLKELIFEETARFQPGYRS
Test [17] has as its target Proto-oncogene tyrosine-protein kinase Src (Homo sapiens) (UniProt P12931). The test can be described thus: Inhibition of SRC pathway in human A549/Taxol cells assessed as decrease in phosphorylated FAK level at 5 uM incubated for 24 hrs. Type of test: cell-based.
In test [18] the test system is NCI-H460. The test can be described thus: Inhibition of DMBA-induced CYP1B1 overexpression in human NCI-H460 cells assessed as increase in SRC level at 5 uM incubated for 24 hrs by densitometry analysis. Type of test: functional, cell-based.
The subject of test [19] is NCI-H460. The test can be described thus: Inhibition of DMBA-induced CYP1B1 overexpression in human NCI-H460 cells assessed as effect on E-cadherin level at 5 uM incubated for 24 hrs by densitometry analysis. It counts as functional, cell-based.
Test [20] has as its system A549. The test can be described thus: Inhibition of DMBA-induced CYP1B1 overexpression in human A549 cells assessed as effect on MMP-9 level at 5 uM incubated for 24 hrs by densitometry analysis. It counts as functional, cell-based.
In test [21] the test system is A549/TR. Put plainly: Synergistic antiproliferative activity against human A549/Taxol cells assessed as inhibition of cell growth at 3.75 to 30 uM incubated for 72 hrs in presence of taxol by MTT assay. It counts as functional. On the set-up: scale not given: the % may be the effect or the level left. To be noted: dose 3.75-30 µM.
Test [22] relates to A549/TR. Put plainly: Upregulation of E-cadherin expression level in human A549/Taxol cells at 2.5 to 10 uM incubated for 24 hrs by densitometry analysis. Type of test: functional, cell-based. To be noted: dose 2.5-10 µM.
Test [23] relates to A549/TR. Put plainly: Reversal of taxol resistance in human A549/Taxol cells assessed as suppression of P-gp expression level at 2.5 to 10 uM incubated for 20 mins by multimode plate reader analysis. It counts as functional, cell-based. To be noted: dose 2.5-10 µM.
Test [24] has as its system A549/TR. The test can be described thus: Synergistic antiproliferative activity against human A549/Taxol cells assessed as increase in taxol by measuring combination index at 15 uM incubated for 72 hrs in presence of 0.06 uM taxol by MTT assay. It counts as functional.
The test system of test [25] is A549/TR. Put plainly: Synergistic antiproliferative activity against human A549/Taxol cells assessed as increase in taxol by measuring combination index at 7.50 uM incubated for 72 hrs in presence of 0.50 uM taxol by MTT assay. It counts as functional. To be noted: dose 7.5 µM.
For another test, the system named is A549/Taxol. The test can be described thus: Inhibition of AKT pathway in human A549/Taxol cells assessed as decrease in phosphorylated AKT level at 2.5 to 5 uM incubated for 24 hrs. It counts as cell-based. To be noted: dose 2.5-5 µM.

Proto-oncogene tyrosine-protein kinase Src (Homo sapiens), sequence (P12931 2-536 limits assumed): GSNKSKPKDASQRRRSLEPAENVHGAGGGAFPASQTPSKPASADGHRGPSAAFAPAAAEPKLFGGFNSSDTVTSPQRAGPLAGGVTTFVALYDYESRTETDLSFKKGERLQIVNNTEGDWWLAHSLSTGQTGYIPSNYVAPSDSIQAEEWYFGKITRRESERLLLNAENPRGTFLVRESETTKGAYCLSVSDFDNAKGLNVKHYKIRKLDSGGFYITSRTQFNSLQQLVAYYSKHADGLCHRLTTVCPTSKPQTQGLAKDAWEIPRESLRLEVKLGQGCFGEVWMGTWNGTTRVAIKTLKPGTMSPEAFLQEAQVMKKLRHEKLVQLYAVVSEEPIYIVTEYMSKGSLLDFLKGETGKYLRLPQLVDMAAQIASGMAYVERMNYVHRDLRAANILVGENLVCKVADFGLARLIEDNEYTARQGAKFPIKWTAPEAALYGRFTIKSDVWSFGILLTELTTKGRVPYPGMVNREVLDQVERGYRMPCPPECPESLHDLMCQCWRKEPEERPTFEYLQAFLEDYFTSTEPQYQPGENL

For orientation: pIC50 means the negative decadic logarithm of the IC50, by convention in mol/L. `COc1cc(/C=C/c2ccc(OC)cc2OC)cc(OC)c1`: the inhibition result (in the test with A549 [1]; with NCI-H460 [8]; in test [11]; in the test on NCI-H460 [13]; in test [16]; in [17]) was “Active” throughout. Moreover, the inhibition entry with A549 [2], in the test on NCI-H460 [6], in the test with NCI-H460 [9], in the test with NCI-H460 [10], in the test on A549 [12] and in the test on NCI-H460 [14] was “Dose-Dependent Effect” throughout. Moreover, the inhibition entry in the test with NCI-H460 [15] was “Dose-Dependent Effect”. Further, the result in the test on A549/TR [3] and with A549/TR [5] was Active. Besides, the outcome in the test with NCI-H460 [4] was inactive. For the same compound, at Cytochrome P450 1A2, the pIC50 is 5.62. In addition, the inhibition result with A549 [7], in the test on NCI-H460 [18], with NCI-H460 [19] and with A549 [20] was “inactive” throughout.

`COc1cc(Nc2nc(-c3nc(-c4ccccc4F)cs3)cs2)cc(OC)c1`: the Activity in the test on A549/TR [21] is 62%. Also, the result in the test on A549/TR [3], in the test on A549/TR [22] and in the test with A549/TR [23] was Active. Besides, the CI with A549/TR [24] came to 0.2; in the test on A549/TR [25], 0.66. Moreover, in the test with A549/Taxol, the inhibition result is “Active”.
